From paper PMC7252619 (PLoS ONE, 2020)
Like-named read-outs stand apart in the source and are kept apart here.

Experiments:
[1] = molecular target: VEGFR2 (Homo sapiens, UniProt P35968); assay: Kinase activity test (ReactionBiology), % enzyme activity relative to DMSO; type: biochemical; set-up: purchased ReactionBiology; settings: VEGFR2;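 note: VEGFR2 was one member of a ten-kinase screening panel testing marketed FDA-approved drugs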
[2] = molecular target: T1, CK1d (Homo sapiens, UniProt P48730); assay: as above; type: biochemical; settings: CK1d
T1 construct: purchased ReactionBiology

[3] = 1 uM, Average, read-out: % Enzyme Activity (relative to DMSO controls), Average
[4] = 1 uM, replicate Data 1, read-out: % Enzyme Activity (relative to DMSO controls), Data 1
[5] = 1 uM, replicate Data 2, read-out: % Enzyme Activity (relative to DMSO controls), Data 2
[6] = 10 uM, Average, read-out: % Enzyme Activity (relative to DMSO controls), Average
[7] = 10 uM, replicate Data 1, read-out: % Enzyme Activity (relative to DMSO controls), Data 1
[8] = 10 uM, replicate Data 2, read-out: % Enzyme Activity (relative to DMSO controls), Data 2

T1 sequence (P48730 whole entry): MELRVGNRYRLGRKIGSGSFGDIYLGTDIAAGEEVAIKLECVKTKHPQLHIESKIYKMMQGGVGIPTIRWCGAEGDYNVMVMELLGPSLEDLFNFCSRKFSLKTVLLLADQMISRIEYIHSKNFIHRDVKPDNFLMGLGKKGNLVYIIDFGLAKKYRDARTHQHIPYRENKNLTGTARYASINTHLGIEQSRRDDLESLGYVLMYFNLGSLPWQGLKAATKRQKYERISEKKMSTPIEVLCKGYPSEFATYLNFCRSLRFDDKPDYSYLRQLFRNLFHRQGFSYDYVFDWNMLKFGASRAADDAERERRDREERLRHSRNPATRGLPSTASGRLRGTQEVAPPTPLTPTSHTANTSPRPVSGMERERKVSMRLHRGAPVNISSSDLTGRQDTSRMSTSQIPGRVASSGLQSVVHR
VEGFR2, sequence (P35968 20-1356): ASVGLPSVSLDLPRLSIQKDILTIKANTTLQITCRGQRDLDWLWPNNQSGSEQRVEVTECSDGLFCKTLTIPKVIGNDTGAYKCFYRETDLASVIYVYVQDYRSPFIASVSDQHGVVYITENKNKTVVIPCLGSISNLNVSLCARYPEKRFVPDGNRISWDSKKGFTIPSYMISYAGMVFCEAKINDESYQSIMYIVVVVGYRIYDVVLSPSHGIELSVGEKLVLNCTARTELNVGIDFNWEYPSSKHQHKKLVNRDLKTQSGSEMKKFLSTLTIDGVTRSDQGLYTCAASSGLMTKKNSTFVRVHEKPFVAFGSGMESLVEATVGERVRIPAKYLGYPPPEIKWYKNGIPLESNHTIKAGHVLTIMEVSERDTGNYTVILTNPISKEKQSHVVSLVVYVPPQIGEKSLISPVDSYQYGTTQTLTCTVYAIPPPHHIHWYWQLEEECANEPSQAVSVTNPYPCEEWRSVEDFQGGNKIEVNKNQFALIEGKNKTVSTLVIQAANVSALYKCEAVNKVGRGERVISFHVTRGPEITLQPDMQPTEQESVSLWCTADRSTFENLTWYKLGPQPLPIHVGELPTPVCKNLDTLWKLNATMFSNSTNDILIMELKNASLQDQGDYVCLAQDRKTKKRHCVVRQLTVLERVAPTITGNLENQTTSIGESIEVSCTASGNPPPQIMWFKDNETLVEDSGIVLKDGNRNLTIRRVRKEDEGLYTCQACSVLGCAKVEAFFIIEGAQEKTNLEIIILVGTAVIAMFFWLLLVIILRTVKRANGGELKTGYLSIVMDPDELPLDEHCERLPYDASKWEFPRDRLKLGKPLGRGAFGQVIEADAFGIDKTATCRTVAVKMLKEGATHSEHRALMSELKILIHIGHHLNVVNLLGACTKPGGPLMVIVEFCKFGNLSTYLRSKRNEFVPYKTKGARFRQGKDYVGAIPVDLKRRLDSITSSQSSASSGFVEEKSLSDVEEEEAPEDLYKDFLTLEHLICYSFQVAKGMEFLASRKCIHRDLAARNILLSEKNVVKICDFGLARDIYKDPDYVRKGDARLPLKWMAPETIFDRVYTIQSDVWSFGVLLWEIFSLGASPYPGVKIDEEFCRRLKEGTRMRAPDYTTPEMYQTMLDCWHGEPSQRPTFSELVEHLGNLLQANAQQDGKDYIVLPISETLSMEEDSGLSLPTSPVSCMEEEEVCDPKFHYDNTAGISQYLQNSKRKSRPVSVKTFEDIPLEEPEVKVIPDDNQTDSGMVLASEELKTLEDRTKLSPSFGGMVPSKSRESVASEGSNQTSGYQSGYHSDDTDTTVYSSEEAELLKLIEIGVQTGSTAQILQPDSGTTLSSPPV

% Enzyme Activity (relative to DMSO controls), Average ([1]; 1 uM, Average) [%]	% Enzyme Activity (relative to DMSO controls), Data 1 ([1]; 1 uM, replicate Data 1) [%]	% Enzyme Activity (relative to DMSO controls), Data 2 ([1]; 1 uM, replicate Data 2) [%]	% Enzyme Activity (relative to DMSO controls), Average ([1]; 10 uM, Average) [%]	% Enzyme Activity (relative to DMSO controls), Data 1 ([1]; 10 uM, replicate Data 1) [%]	% Enzyme Activity (relative to DMSO controls), Data 2 ([1]; 10 uM, replicate Data 2) [%]	% Enzyme Activity (relative to DMSO controls), Average ([2]; 1 uM, Average) [%]	% Enzyme Activity (relative to DMSO controls), Data 1 ([2]; 1 uM, replicate Data 1) [%]	% Enzyme Activity (relative to DMSO controls), Data 2 ([2]; 1 uM, replicate Data 2) [%]	% Enzyme Activity (relative to DMSO controls), Average ([2]; 10 uM, Average) [%]	% Enzyme Activity (relative to DMSO controls), Data 1 ([2]; 10 uM, replicate Data 1) [%]	% Enzyme Activity (relative to DMSO controls), Data 2 ([2]; 10 uM, replicate Data 2) [%]	Structure (SMILES)	further results
110.86	108.92	112.79	104.24	106.32	102.16							Cn1c(=O)cc(N2CCC[C@@H](N)C2)n(Cc2ccccc2C#N)c1=O [Alogliptin]	
						100.17	100.59	99.74	106.64	108.06	105.21	CCCCC[C@H](O)/C=C/[C@H]1[C@H](O)CC(=O)[C@@H]1CCCCCCC(=O)O [Alprostadil]	
99.13	103.06	95.2	96.01	95.11	96.91							CC1(C)S[C@@H]2[C@H](NC(=O)[C@H](N)c3ccccc3)C(=O)N2[C@H]1C(=O)O [Ampicillin]	
						107.55						CC(C)CN(C[C@@H](O)[C@H](Cc1ccccc1)NC(=O)O[C@H]1CCOC1)S(=O)(=O)c1ccc(N)cc1 [Amprenavir]	
106.10	100.57	111.63	106.53	106.16	106.89							CC(C)(Oc1ccc(CCNC(=O)c2ccc(Cl)cc2)cc1)C(=O)O [Bezafibrate]	
									101.06			CC(C)Nc1cccnc1N1CCN(C(=O)c2cc3cc(NS(C)(=O)=O)ccc3[nH]2)CC1 [Delavirdine]	
96.96			89.29						133.63			CNCCCN1c2ccccc2CCc2ccccc21 [Desipramine]	
						95.10	99.58	90.62	97.15	96.56	97.73	CC1=Nc2ccc(Cl)cc2S(=O)(=O)N1 [Diazoxide]	
110.51	112.09	108.92	100.16	99.85	100.47							COc1cccc2c1C(=O)c1c(O)c3c(c(O)c1C2=O)C[C@@](O)(C(=O)CO)C[C@@H]3O[C@H]1C[C@H](N)[C@H](O)[C@H](C)O1 [Doxorubicin]	
106.40	108.92	103.87	104.79	105.29	104.29							C[C@]12CC[C@@H]3c4ccc(O)cc4CC[C@H]3[C@@H]1CCC2=O [Estrone]	
113.72	118.24	109.2	105.92	109.47	102.36	104.91	106.12	103.69	106.01	110.21	101.8	O=c1[nH]cc(F)c(=O)[nH]1 [Fluorouracil]	
						106.25	107.91	104.59	89.28	92.55	86	CCC1=C(C)CN(C(=O)NCCc2ccc(S(=O)(=O)NC(=O)N[C@H]3CC[C@H](C)CC3)cc2)C1=O [Glimepiride]	
111.69	111.85	111.52	106.65	105.86	107.43							CC(=O)[C@]1(O)Cc2c(O)c3c(c(O)c2[C@@H](O[C@H]2C[C@H](N)[C@H](O)[C@H](C)O2)C1)C(=O)c1ccccc1C3=O [Idarubicin]	
						110.04	103.65	116.43	118.78	119.29	118.26	CCCCNc1ccc(C(=O)OCCN(C)C)cc1 [Tetracaine]	
												Cc1ccc(C(=O)c2cc(O)c(O)c([N+](=O)[O-])c2)cc1 [Tolcapone, reference compound]	remaining activity at 1 µM [2, 3]: 91.7%; remaining activity at 1 µM [2, 4]: 91.5%; remaining activity at 1 µM [2, 5]: 91.9%; remaining activity at 10 µM [2, 6]: 35.6%; remaining activity at 10 µM [2, 7]: 33.2%; remaining activity at 10 µM [2, 8]: 38%; remaining activity at 1 µM ([2]; compound 1μM, relative to DMSO controls, read-out: % Enzyme activity at 1μM): 91.7%; remaining activity at 10 µM ([2]; compound 10μM, relative to DMSO controls, read-out: % Enzyme activity at 10μM): 35.6%
												CCCc1nc(C)c2c(=O)[nH]c(-c3cc(S(=O)(=O)N4CCN(CC)CC4)ccc3OCC)nn12 [Vardenafil]	remaining activity at 1 µM [2, 3]: 102%; remaining activity at 1 µM [2, 4]: 100%; remaining activity at 1 µM [2, 5]: 104%; remaining activity at 10 µM [2, 6]: 110%; remaining activity at 10 µM [2, 7]: 107%; remaining activity at 10 µM [2, 8]: 112%
												CS(=O)(=O)c1ccc(C(=O)Nc2ccc(Cl)c(-c3ccccn3)c2)c(Cl)c1 [Vismodegib]	remaining activity at 1 µM [1, 3]: 103%; remaining activity at 1 µM [1, 4]: 103%; remaining activity at 1 µM [1, 5]: 103%; remaining activity at 10 µM [1, 6]: 91.1%; remaining activity at 10 µM [1, 7]: 97.8%; remaining activity at 10 µM [1, 8]: 84.5%

Structure (SMILES)	% Enzyme Activity (relative to DMSO controls), Average ([1]; 1 uM, Average) [%]	% Enzyme Activity (relative to DMSO controls), Data 1 ([1]; 1 uM, replicate Data 1) [%]	% Enzyme Activity (relative to DMSO controls), Data 2 ([1]; 1 uM, replicate Data 2) [%]	% Enzyme Activity (relative to DMSO controls), Average ([1]; 10 uM, Average) [%]	% Enzyme Activity (relative to DMSO controls), Data 1 ([1]; 10 uM, replicate Data 1) [%]	% Enzyme Activity (relative to DMSO controls), Data 2 ([1]; 10 uM, replicate Data 2) [%]	% Enzyme Activity (relative to DMSO controls), Average ([2]; 1 uM, Average) [%]	% Enzyme Activity (relative to DMSO controls), Data 1 ([2]; 1 uM, replicate Data 1) [%]	% Enzyme Activity (relative to DMSO controls), Data 2 ([2]; 1 uM, replicate Data 2) [%]	% Enzyme Activity (relative to DMSO controls), Average ([2]; 10 uM, Average) [%]	% Enzyme Activity (relative to DMSO controls), Data 1 ([2]; 10 uM, replicate Data 1) [%]	% Enzyme Activity (relative to DMSO controls), Data 2 ([2]; 10 uM, replicate Data 2) [%]	further results
CO[C@@]12[C@H](COC(N)=O)C3=C(C(=O)C(C)=C(N)C3=O)N1C[C@@H]1N[C@@H]12 [Mitomycin]							98.48	100.68	96.28	158.59	209.38	107.8	
